Assay results reported in patent US11964938B2, “3-phenyl-4-hexynoic acid derivatives as GPR40 agonists” (CELON PHARMA S.A., priority 2018, dated 2024).
Counter-ions that a name gives are not always drawn.

How the values were obtained:
[1] = test system: diabetes STZ-treated mice; assay: Von Frey test on diabetes STZ-treated mice (tactile allodynia); assay type: in vivo, mouse; details: 60 minutes after administration, mean of group
Description: Experiment B5: Von Frey Test on Diabetes STZ-Treated Mice.
Tactile allodynia was assessed by electronic von Frey apparatus (Bioseb) equipped with a flexible filament. Reaction to stimuli was assessed using growing applied pressure (from 0 to 10 g) on a plantar side of the hind foot of mice. Pregabalin was a control, as reference healthy mice with preserved normal response to the stimuli were used. In the day of the experiment, mice were placed separately in cages with a wire mesh bottom for 1 h for habituation to experimental conditions. After habituation period, each mouse was treated 3 times alternately, with 30 s intervals between each measurement, to obtain starting values (before administration of the compound) of pain sensitivity. […] The results are presented in Table 7 as mean value for all mice in a given group (n=7-10).

[2] = test system: Wistar HAN Crl:WI (HAN) rats; assay: Glucose tolerance test in vivo on rats; parameters: species or system rat; details: 10 mg/kg oral single dose, blood
Description: Experiment B3: Glucose Tolerance Test In Vivo on Rats.
To evaluate glucose lowering effect of the compounds in in vivo study, glucose tolerance test (GTT) was performed. The study was performed on male outbred Wistar HAN Crl:WI (HAN) rats from Charles River, weight about 250-300 g, 8-10 weeks old. Rats were starved for 12 hours (with free access to water).
At time point t=0 animals were given orally a single dose of a compound (by a gastric tube) and immediately (t=0) and after 6 hour (t=6 h) intraperitoneal (i.p.) glucose bolus ([…]). At time points t=0 (just before oral administration of the compounds and intraperitoneal glucose administration), 0.25, 0.5, 1, 2, 2.5, 3, 6, 6.25, 7, 8, and 9 h blood samples from tail vein were collected from each animal for glucose level determination using Accu-chek glucometer (Roche Diagnostics) and additionally at t=0.25, 0.5, 1, 2, 2.5, and 3 h blood samples from tail vein were collected for insulin level measurement using ELISA test (Mercodia).
Tested compound were prepared in 5% DMSO/40% PEG300/55% PBS vehicle and administered at the dose of 10 mg/kg body weight in a volume of 0.5 ml/100 g body weight. After 4 hours after tested compound administration animals were given standard diet to the cages. Decrease of AUC value for glucose level in blood was calculated and the results for selected compounds of the invention are presented in Table 5. Analysis was performed using GraphPad prism software.

type 2 diabetes patients = details: cited from earlier work
human GPR40 receptor = molecular target: T1, human GPR40 receptor (Homo sapiens, UniProt O14842); assay: Analysis of receptor activation - calcium ions concentration measurement (aequorin luminescence); assay type: cell-based; details: enhancement or decrease of activity in relation to reference TAK-875, from EC50 values
T1 construct: host or cells: CHO-K1 (co-expressing aequorin)
Excerpt: Experiment B1: Analysis of Receptor Activation—Calcium Ions Concentration Measurement.
As a result of the measurement, luminescence change in the time curve were obtained, the integration of which allowed to calculate the relative amount of calcium ions released to cytosol. […] Curves plotted from obtained results allowed to determine EC50 values.

T1 sequence (O14842 whole entry): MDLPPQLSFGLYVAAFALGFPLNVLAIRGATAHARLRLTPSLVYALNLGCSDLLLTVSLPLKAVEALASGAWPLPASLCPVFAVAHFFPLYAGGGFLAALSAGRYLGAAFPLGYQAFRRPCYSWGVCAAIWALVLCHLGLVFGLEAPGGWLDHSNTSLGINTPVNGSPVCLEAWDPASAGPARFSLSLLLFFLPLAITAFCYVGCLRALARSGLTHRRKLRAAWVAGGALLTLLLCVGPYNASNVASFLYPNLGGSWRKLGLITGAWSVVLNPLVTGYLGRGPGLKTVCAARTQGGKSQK

SMILES | Applied pressure causing the response, sick animal (neuropathic) after compound administration ([1]; 3 mg/kg p.o.) [g] | Applied pressure causing the response, sick animal (neuropathic) after compound administration ([1]; 10 mg/kg p.o.) [g] | Applied pressure causing the response, sick animal (neuropathic) after compound administration ([1]; 30 mg/kg p.o.) [g] | AUC for glucose (0-540 min.) ([2]; i.p. glucose bolus at t=0 and 6 h) | AUC for insulin (0-180 min.) ([2]; i.p. glucose bolus) | side effects (type 2 diabetes patients; clinical development, associated with inhibition of bile acids transport) | glucose levels (type 2 diabetes patients; phase 3 clinical trials, type 2 diabetes patients) | % PTAK-875 (human GPR40 receptor)
CC#C[C@@H](CC(=O)O)c1ccc(OCC(C)=C(C)C)cc1 [Example S1, (3S)-3-{4-[(2,3-dimethylbut-2-en-1-yl)oxy]phenyl}hex-4-ynoic acid calcium salt] | 1.85 | 2.34 | 3.36 |  |  |  |  | 
Cc1cc(OCCCS(C)(=O)=O)cc(C)c1-c1cccc(COc2ccc3c(c2)OC[C@H]3CC(=O)O)c1 [Example R1, 2[(3S)-6-({3-[4-(3-methanesulfonylpropoxy)-2,6-dimethylphenyl]-phenyl}methoxy)-2,3-dihydro-1-benzofuran-3-yl]acetic acid, reference compound] |  |  |  | 30950.6 | 210.5 | side effects on the liver | ability to reduce glucose levels | B (81-120% PTAK-875)
